This passage reports mortality results from patent publication US20210317112A1, “HETEROCYCLIC COMPOUNDS AS PESTICIDES” (Bayer Aktiengesellschaft, priority 2017, published 2021).

Like-named read-outs stand apart in the source and are kept apart here.

Format in all cases: in vivo
In experiment [1] the test system is two spotted spidermite (Tetranychus urticae). In words: whole plant or invertebrate. Particulars: in Phaseolus vulgaris, foliar, 144 h, read-out: mortality in %. The procedure:
Tetranychus urticae—Spray Test OP-Resistant Solvent: 78.0 parts by weight acetone • 1.5 parts by weight dimethylformamide Emulsifier: alkylarylpolyglycol ether
(§1) To produce a suitable preparation of active compound, 1 part by weight of active compound is mixed with the stated amount of solvents and is diluted with water, containing an emulsifier concentration of 1000 ppm, to the desired concentration. Further test concentrations are prepared by dilution with emulsifier containing water.
French bean (Phaseolus vulgaris) leaf disks infected with all instars of the two spotted spidermite (Tetranychus urticae), are sprayed with a preparation of the active ingredient of the desired concentration.
After 6 days mortality in % is determined. 100% means all spider mites have been killed and 0% means none of the spider mites have been killed.

Experiment [2] has as its system brown planthopper (Nilaparvata lugens). In words: Nilaparvata lugens spray test (solvent 52.5 acetone / 7 DMF). The settings on record: 96 h, application rate 500 g/ha, rice plants, after 4 days. The procedure:
Nilaparvata lugens—Spray Test Solvent: 52.5 parts by weight of acetone • 7 parts by weight of dimethylformamide Emulsifier: alkylaryl polyglycolether
To produce a suitable preparation of active compound, 1 part by weight of active compound is mixed with the stated amount of solvents and is diluted with water, containing an emulsifier concentration of 1000 ppm, to the desired concentration. Further test concentrations are prepared by dilution with emulsifier containing water. Ammonium salt and/or penetration enhancer in a dosage of 1000 ppm are added to the desired concentration if necessary.
Rice plants (Oryza sativa) are treated by being sprayed with the desired concentration of the active compound and are infested with larvae of the brown planthopper (Nilaparvata lugens).
(§2) After 4 days mortality in % is determined. 100% means all planthoppers have been killed and 0% means none of the planthoppers have been killed.

For experiment [3], the system named is mustard beetle larvae (Phaedon cochleariae). The experiment can be described thus: Phaedon cochleariae spray test. Particulars: in Brassica rapa, foliar, 168 h, read-out: mortality in %. The procedure: Phaedon cochleariae—Spray Test Solvent: 78.0 parts by weight of acetone • • 1.5 parts by weight of dimethylformamide Emulsifier: alkylarylpolyglycol ether
as §1
Chinese cabbage (Brassica pekinensis) leaf disks are sprayed with a preparation of the active ingredient of the desired concentration. Once dry, the leaf disks are infested with mustard beetle larvae (Phaedon cochleariae).
After 7 days mortality in % is determined. 100% means all beetle larvae have been killed and 0% means none of the beetle larvae have been killed.

The test system of experiment [4] is southern green stink bug (Nezara viridula). The experiment can be described thus: whole plant or invertebrate. Particulars: in Hordeum vulgare, 96 h, read-out: mortality in %. The procedure: Nezara viridula—Spray Test Solvent: 52.5 parts by weight of acetone • 7 parts by weight of dimethylformamide Emulsifier: alkylaryl polyglycolether
To produce a suitable preparation of active compound, 1 part by weight of active compound is mixed with the stated amount of solvent, and the concentrate is diluted with water, containing an emulsifier concentration of 1000 ppm, to the desired concentration. Ammonium salt and/or penetration enhancer in a dosage of 1000 ppm are added to the desired concentration if necessary.
(§3) Barley plants (Hordeum vulgare) infested with larvae of the southern green stink bug (Nezara viridula) are sprayed with a test solution containing the desired concentration of the active ingredient.
(§4) After 4 days mortality in % is determined. 100% means all the stink bugs have been killed; 0% means none of the stink bugs have been killed.

For experiment [5] the test system is unchanged. In words: whole plant or invertebrate. The settings on record: in Hordeum vulgare, 96 h, read-out: mortality in %. The procedure: Nezara viridula—Spray Test Solvent: 78.0 parts by weight of acetone • • 1.5 parts by weight of dimethylformamide Emulsifier: alkylarylpolyglycol ether
To produce a suitable preparation of active compound, 1 part by weight of active compound is mixed with the stated amount of solvent, and the concentrate is diluted with water, containing an emulsifier concentration of 1000 ppm, to the desired concentration. Further test concentrations are prepared by dilution with emulsifier containing water.
as §3, §4
The source holds these as a separate data set.

Experiment [6] relates to brown planthopper (Nilaparvata lugens). The experiment can be described thus: Nilaparvata lugens spray test (solvent 78.0 acetone / 1.5 DMF). Particulars: 96 h, application rate 500 g/ha, rice plants, after 4 days. The procedure: Nilaparvata lugens—Spray Test Solvent: 78.0 parts by weight of acetone • • 1.5 parts by weight of dimethylformamide Emulsifier: alkylarylpolyglycol ether
as §1
Rice plants (Oryza sativa) are sprayed with a preparation of the active ingredient of the desired concentration and the plants are infested with the brown planthopper (Nilaparvata lugens).
as §2

Experiment [7] relates to green peach aphid (Myzus persicae). The experiment can be described thus: whole plant or invertebrate. Particulars: po, 120 h, read-out: mortality in %. The procedure: Myzus persicae—Oral Test Solvent: 100 parts by weight acetone
To produce a suitable preparation of active compound, 1 part by weight of active compound is mixed with the stated amount of solvent, and the concentrate is diluted with water to the desired concentration. 50 μl compound solution is filled in microtiter plates and 150 μl IPL41 insect medium (33%+15% sugar) is added to obtain a total volume of 200 μper well. Afterwards the plates are sealed with parafilm through which a mixed population of the green peach aphid (Myzus persicae) can suck on the compound preparation.
(§5) After 5 days mortality in % is determined. 100% means all aphids have been killed and 0% means none of the aphids have been killed.

For experiment [8] the test system is unchanged. In words: Myzus persicae spray test. Particulars: in Brassica rapa, foliar, 120 h, read-out: mortality in %. The procedure: Myzus persicae—spray test Solvent: 78.0 parts by weight acetone • 1.5 parts by weight dimethylformamide Emulsifier: alkylarylpolyglycol ether
as §1
Chinese cabbage (Brassica pekinensis) leaf disks infected with all instars of the green peach aphid (Myzus persicae), are sprayed with a preparation of the active ingredient of the desired concentration.
as §5

Usually mortality stands for the percentage killed. For `O=C(Nc1nc(-c2c(F)cccc2F)no1)c1cccnc1C(F)(F)F` [Compound I-1-1, N-[3-(2,6-Difluorophenyl)-1,2,4-oxadiazol-5-yl]-2-(trifluoromethyl)nicotinamide], the mortality at 500 g/ha in experiment [1] stood at 70%; in experiment [2], 80%; in experiment [3] it was 100%; in experiment [4] it was 100%. Also, the mortality at 100 g/ha in experiment [3] and in experiment [4] was 100% throughout.
For the compound `O=C(Nc1nc(-c2ccccc2C(F)(F)F)no1)c1cccnc1C(F)(F)F` [Compound I-1-8, 2-(trifluoromethyl)-N-{3-[2-(trifluoromethyl)phenyl]-1,2,4-oxadiazol-5-yl}nicotinamide], in experiment [1], the mortality at 100 g/ha turned out to be 100%. The mortality at 500 g/ha in experiment [1] was determined as 100%; in experiment [5] it was 90%; in experiment [3], 100%; in experiment [6], 100%.
As to `O=C(Nc1nc(-c2c(F)ccc(Br)c2F)no1)c1cccnc1C(F)(F)F` [Compound I-1-12, N-[3-(3-bromo-2,6-difluorophenyl)-1,2,4-oxadiazol-5-yl]-2-(trifluoromethyl)nicotinamide], the mortality at 100 g/ha in experiment [1] and in experiment [3] was 100% throughout. The mortality at 500 g/ha in experiment [1] amounted to 100%; in experiment [3], 83%.
For the compound `N#Cc1c(-c2c(F)cccc2F)nsc1NC(=O)c1cccnc1C(F)(F)F` [Compound I-2-1, N-[4-Cyano-3-(2,6-difluorophenyl)-1,2-thiazol-5-yl]-2-(trifluoromethyl)nicotinamide], the mortality at 500 g/ha in experiment [5], in experiment [3] and in experiment [4] was 100% in each case. For the same compound, the mortality at 20 ppm in experiment [7] was found to be 90%. In addition, the mortality at 100 g/ha in experiment [4] turned out to be 100%.
Regarding `N#Cc1c(-c2ccccc2Cl)nsc1NC(=O)c1cccnc1Cl` [Compound I-2-6, 2-Chloro-N-[3-(2-chlorophenyl)-4-cyano-1,2-thiazol-5-yl]nicotinamide], the mortality at 500 g/ha turned out to be 70% in experiment [1], 100% in experiment [8], 83% in experiment [3] and 100% in experiment [4].
Consider `N#Cc1c(-c2ccccc2C(F)(F)F)nsc1NC(=O)c1cccnc1Cl` [Compound I-2-7, 2-Chloro-N-{4-cyano-3-[2-(trifluoromethyl)phenyl]-1,2-thiazol-5-yl}nicotinamide], for which the mortality at 100 g/ha in experiment [1] was determined as 90%. Also, the results for the mortality at 500 g/ha in experiment [1], in experiment [3] and in experiment [4] were 90%, 100% and 100%, respectively.
Consider `N#Cc1sc(NC(=O)c2cccnc2C(F)(F)F)nc1-c1ccccc1C(F)(F)F` [Compound I-3-2, N-{5-Cyano-4-[2-(trifluoromethyl)phenyl]-1,3-thiazol-2-yl}-2-(trifluoromethyl)nicotinamide], for which the mortality at 100 g/ha in experiment [1], in experiment [3] and in experiment [4] was 100% each time. Besides, the mortality at 500 g/ha in experiment [1], in experiment [2], in experiment [3] and in experiment [4] was 100% in each case.
